Laboratory results taken from patent US20240352066A1, “ANTIMICROBIAL COMPOUNDS AND THE METHOD OF USE” (priority 2021, published 2024).
Values after ≈ are worked out from the molar mass of the structure shown. Where a SMILES comes first, the peptide text is derived from it. [ ]: non-standard residue; d: D form. N(tridecyl)Gly = CCCCCCCCCCCCCNCC(=O)O; Gly(N-2-aminoethyl) = NCCNCC(=O)O; Gly(N-cHex) = O=C(O)CNC1CCCCC1; Nlys = NCCCCNCC(=O)O

Assays:
C. neoformans [1] = tested on: C. neoformans
C. albicans = format: cell-based, Candida albicans; details: 24 h
Experimental: 2-fold serial dilutions of 100× peptoid solutions were prepared in water and 2 μL of peptoid were added to each well in triplicate. […] MIC was defined as the lowest concentration of compound preventing fungal growth. This assay was repeated 3 times on separate days with each compound.

C. neoformans [2] = assay: microbe, parasite or virus in culture; format: cell-based, Cryptococcus neoformans; details: 72 h
Experimental: Cell solution was diluted into RPMI-MOPS (1:100) followed by another dilution into RPMI-MOPS (1:20). […] Plates were incubated for 72 hours at 35° C. MIC was determined as the lowest concentration of individual compound or combined compounds inhibiting pathogen growth. Fractional inhibitory concentration index (FICi) was determine using the following equation: FICi values were interpreted as follows: FICi<0.5 synergistic; 0.5≤FICi≤4 indifferent; FICi>4 antagonist (Johnson et al., Antimicrob. Agents Chemother. 48, 693-715 (2004)).

C. albicans biofilm = format: cell-based, Candida albicans; details: 24 h
Experimental: Plates were incubated overnight at 37° C. Media was gently removed and gently washed three times with PBS. RPMI-MOPS (198 μL) were added to each well. 2-fold serial dilutions of 100× peptoid solutions were prepared in water and 2 μL of peptoid were added to each well in triplicate then incubated at 37° C. for 24 hours. PrestoBlue (20 μL) was added to each well and incubated at 37° C. for one hour before measuring fluorescence on a SpectraMax M5 plate reader (Ex. 555 nm; Em. 585 nm).

Structure (SMILES): CCCCCCCCCCCCCNCC(=O)N(CC(=O)N(CCCCN)CC(=O)N(CCN)CC(=O)N(CC(N)=O)C1CCCCC1)C1CCCCC1 [RMG8-8, Ntri-Ncha-Nlys-Nae-Ncha] (H-[N(tridecyl)Gly][Gly(N-cHex)][Nlys][Gly(N-2-aminoethyl)][Gly(N-cHex)]-NH2)
- MIC C. neoformans after incubation with human serum (C. neoformans [1]): 3.13 µg/mL
- MIC C. neoformans, stock not incubated with human serum (C. neoformans [1]): 1.56 µg/mL
- MIC C. albicans (C. albicans): 25 µg/mL (≈ 32.8 µM)
- MIC (compound alone) (C. neoformans [2]): 1.56 µg/mL
- MIC C. albicans biofilm (MBIC) (C. albicans biofilm): 100 µg/mL (≈ 131 µM)
- proteolytic degradation / protein binding in human serum: No proteolytic degradation or significant protein binding
